{
  "source": "ChEMBL document CHEMBL5316338",
  "about": "“Discovery of Novel PTP1B Inhibitors with Once-Weekly Therapeutic Potential for Type 2 Diabetes: Design, Synthesis, and In Vitro and In Vivo Investigations of BimBH3 Peptide Analogues” (J Med Chem, 2023)",
  "key": {"Mus musculus [1]": {"tested_on": "Mus musculus", "assay": "Antidiabetic activity against over-night fasted C57BL/ks db/db mouse assessed as suppression of increased blood glucose concentration at 1 uM/kg, sc pretreated with compound for 4 weeks followed by insulin stimulation and measured for 90 mins by insulin tolerance test", "assay_type": "functional, organism-based", "conditions": "time 40410.0 min"}, "[2]": {"assay": "Stability of compound assessed as Proteinase K (unknown origin) mediated compound degradation by measuring fold change of half-life by HPLC analysis relative to BimBH312-mer peptide", "assay_type": "ADME"}, "carboxypeptidase A": {"target": "T1, carboxypeptidase A (Homo sapiens, UniProt P15085)", "T1 sequence (P15085 whole entry)": "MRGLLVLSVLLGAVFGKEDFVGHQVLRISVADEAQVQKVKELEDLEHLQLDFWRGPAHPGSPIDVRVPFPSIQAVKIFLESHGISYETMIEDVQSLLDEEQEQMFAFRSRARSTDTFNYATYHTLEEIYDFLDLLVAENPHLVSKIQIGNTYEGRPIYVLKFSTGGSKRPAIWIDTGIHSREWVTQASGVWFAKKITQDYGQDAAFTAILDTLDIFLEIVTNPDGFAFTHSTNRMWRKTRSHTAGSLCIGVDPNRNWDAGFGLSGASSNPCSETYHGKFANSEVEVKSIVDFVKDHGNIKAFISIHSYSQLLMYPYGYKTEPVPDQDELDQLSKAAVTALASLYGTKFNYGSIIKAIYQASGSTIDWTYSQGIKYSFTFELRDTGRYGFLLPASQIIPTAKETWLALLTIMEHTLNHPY", "assay": "Stability of compound assessed as carboxypeptidase A (unknown origin) mediated compound degradation by measuring half-life by RP-HPLC analysis", "assay_type": "ADME"}, "Mus musculus [3]": {"tested_on": "Mus musculus", "assay": "Antidiabetic activity against C57BL/Ks db/db mouse assessed as redcution in fasting blood glucose level at 1 umol/kg, sc administered once a week and measured on day 26 by glucometer analysis (reference value: 31.4 +/- 2.2 […])", "assay_type": "functional", "conditions": "dose 1 µmol/kg, time 26 day"}, "Mus musculus [4]": {"tested_on": "Mus musculus", "assay": "Antidiabetic activity against sc dosed C57BL/Ks db/db mouse assessed as reduction in glucagon level at 1 umol/kg by ELISA analysis", "assay_type": "functional, organism-based", "conditions": "dose 1.0 µmol/kg"}, "Mus musculus [5]": {"tested_on": "Mus musculus", "assay": "Antidiabetic activity against C57BL/Ks db/db mouse assessed as redcution in fasting blood glucose level at 1 umol/kg, sc administered once a week and measured on day 15 by glucometer analysis (reference value: 27.3 +/- 2.4 […])", "assay_type": "functional", "conditions": "dose 1 µmol/kg, time 15 day"}, "[6]": {"target": "T2, Tyrosine-protein phosphatase non-receptor type 2 (Homo sapiens, UniProt P17706)", "T2 sequence (P17706 whole entry)": "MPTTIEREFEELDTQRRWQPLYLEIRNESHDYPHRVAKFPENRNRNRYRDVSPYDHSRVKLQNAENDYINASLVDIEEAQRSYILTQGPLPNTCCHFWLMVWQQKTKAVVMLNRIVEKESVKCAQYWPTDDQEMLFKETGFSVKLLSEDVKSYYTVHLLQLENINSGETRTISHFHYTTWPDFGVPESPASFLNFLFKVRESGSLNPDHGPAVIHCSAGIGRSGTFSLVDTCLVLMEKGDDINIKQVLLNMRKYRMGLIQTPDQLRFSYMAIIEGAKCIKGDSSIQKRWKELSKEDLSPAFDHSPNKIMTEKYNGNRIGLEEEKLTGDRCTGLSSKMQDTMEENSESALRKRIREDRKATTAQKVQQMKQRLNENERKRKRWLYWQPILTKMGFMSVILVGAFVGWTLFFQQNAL", "assay": "Inhibition of recombinant human TC-PTP (1 to 314 residues) expressed in baculovirus infected insect cells using pNPP as substrate assessed as substrate hydrolysis", "set-up": "species or system Insect cell"}, "Mus musculus [7]": {"tested_on": "Mus musculus", "assay": "Antidiabetic activity against C57BL/Ks db/db mouse assessed as redcution in fasting blood glucose level at 1 umol/kg, sc administered once a week and measured on day 8 by glucometer analysis (reference value: 27.7 +/- 3.7 […])", "assay_type": "functional", "conditions": "dose 1 µmol/kg, time 8 day"}, "Carboxypeptidase A1": {"target": "T3, Carboxypeptidase A1 (Homo sapiens, UniProt P15085)", "T3 sequence (P15085 whole entry)": "T1 sequence (P15085 whole entry)", "assay": "Stability of compound assessed as carboxypeptidase A (unknown origin) mediated compound degradation by measuring fold change of half-life by RP-HPLC analysis relative to BimBH312-mer peptide", "assay_type": "ADME"}, "[8]": {"target": "T4, Tyrosine-protein phosphatase non-receptor type 1 (Homo sapiens) (UniProt P18031)", "T4 sequence (whole entry)": "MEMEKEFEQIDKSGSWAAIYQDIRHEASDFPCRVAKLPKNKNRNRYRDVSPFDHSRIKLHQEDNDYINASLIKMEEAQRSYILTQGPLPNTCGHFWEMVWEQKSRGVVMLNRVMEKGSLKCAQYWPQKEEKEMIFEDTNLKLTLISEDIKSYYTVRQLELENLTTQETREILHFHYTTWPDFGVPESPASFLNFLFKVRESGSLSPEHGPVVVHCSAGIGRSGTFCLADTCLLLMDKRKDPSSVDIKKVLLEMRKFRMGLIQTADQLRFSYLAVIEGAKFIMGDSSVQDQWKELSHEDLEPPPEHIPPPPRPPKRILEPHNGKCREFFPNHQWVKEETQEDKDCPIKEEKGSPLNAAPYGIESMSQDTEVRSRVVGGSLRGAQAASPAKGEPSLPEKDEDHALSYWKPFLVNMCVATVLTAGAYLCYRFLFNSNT", "assay": "Inhibition of N-terminal His tagged recombinant human PTP1B expressed in Escherichia coli using pNPP as substrate assessed as substrate hydrolysis at 40 umol/L relative to control", "conditions": "dose 40.0 µmol/L"}, "Homo sapiens": {"species_on_record": "Homo sapiens", "assay": "Selectivity index, ratio of IC50 for inhibition of recombinant human TC-PTP (1 to 314 residues) expressed in baculovirus infected insect cells to IC50 for inhibition of N-terminal His-tagged recombinant human PTP1B expressed in Escherichia coli"}, "Mus musculus [9]": {"tested_on": "Mus musculus", "assay": "Antidiabetic activity against C57BL/Ks db/db mouse assessed as redcution in fasting blood glucose level at 1 umol/kg, sc administered once a week and measured on day 24 by glucometer analysis (reference value: 30.2 +/- 3.2 […])", "assay_type": "functional", "conditions": "dose 1 µmol/kg, time 24 day"}, "[10]": {"assay": "Stability of compound assessed as Pepsin (unknown origin) mediated compound degradation by measuring fold change of half-life by HPLC analysis relative to BimBH312-mer peptide", "assay_type": "ADME", "conditions": "human"}, "Mus musculus [11]": {"tested_on": "Mus musculus", "assay": "Antidiabetic activity against C57BL/Ks db/db mouse assessed as redcution in fasting blood glucose level at 1 umol/kg, sc administered once a week and measured on day 28 by glucometer analysis (reference value: 32.4 +/- 1.1 […])", "assay_type": "functional", "conditions": "dose 1 µmol/kg, time 28 day"}, "Mus musculus [12]": {"tested_on": "Mus musculus", "assay": "Antidiabetic activity against C57BL/Ks db/db mouse assessed as redcution in fasting blood glucose level at 1 umol/kg, sc administered once a week and measured on day 22 by glucometer analysis (reference value: 27.4 +/- 1.8 […])", "assay_type": "functional", "conditions": "dose 1 µmol/kg, time 22 day"}, "[13]": {"target": "T5, Tyrosine-protein phosphatase non-receptor type 2 (Homo sapiens) (UniProt P17706)", "T5 sequence (whole entry)": "T2 sequence (P17706 whole entry)", "assay": "Inhibition of recombinant human TC-PTP (1 to 314 residues) expressed in baculovirus infected insect cells using pNPP as substrate assessed as substrate hydrolysis at 50 umol/L relative to control", "conditions": "Insect cell, dose 50.0 µmol/L"}, "Mus musculus [14]": {"tested_on": "Mus musculus", "assay": "Antidiabetic activity against sc dosed C57BL/Ks db/db mouse assessed as reduction in C-peptide level at 1 umol/kg by ELISA analysis", "assay_type": "functional, organism-based", "conditions": "dose 1.0 µmol/kg"}, "Chymotrypsin [15]": {"target": "Chymotrypsin (Homo sapiens, UniProt Q99895+P17538+P40313+Q6GPI1)", "assay": "Stability of compound assessed as chymotrypsin (unknown origin) mediated compound degradation by measuring fold change of half-life by RP-HPLC analysis relative to BimBH312-mer peptide", "assay_type": "ADME, protein assay"}, "Proteinase K": {"tested_on": "Proteinase K", "assay": "Stability of compound assessed as Proteinase K (unknown origin) mediated compound degradation by measuring half-life by HPLC analysis", "assay_type": "ADME"}, "Mus musculus [16]": {"tested_on": "Mus musculus", "assay": "Antidiabetic activity against C57BL/Ks db/db mouse assessed as redcution in fasting blood glucose level at 1 umol/kg administered subcutaneously and measured immediately by glucometer analysis (reference value: 19.0 +/- 2.7 […])", "assay_type": "functional", "conditions": "dose 1 µmol/kg; route sc"}, "Mus musculus [17]": {"tested_on": "Mus musculus", "assay": "Antidiabetic activity against over-night fasted C57BL/ks db/db mouse assessed as suppression of increased blood glucose concentration at 1 uM/kg, sc pretreated with compound for 4 weeks followed by oral glucose stimulation and measured upto 120 mins by oral glucose tolerance test", "assay_type": "functional, organism-based", "conditions": "time 40440.0 min"}, "Mus musculus [18]": {"tested_on": "Mus musculus", "assay": "Antidiabetic activity against sc dosed C57BL/Ks db/db mouse assessed as reduction in serum insulin level at 1 umol/kg by ELISA analysis", "assay_type": "functional, organism-based", "conditions": "dose 1.0 µmol/kg"}, "chymotrypsin [19]": {"target": "chymotrypsin (Homo sapiens, UniProt P17538+P40313+Q6GPI1+Q99895)", "assay": "Stability of compound assessed as chymotrypsin (unknown origin) mediated compound degradation by measuring half-life by RP-HPLC analysis", "assay_type": "ADME, protein assay"}, "[20]": {"target": "T6, Tyrosine-protein phosphatase non-receptor type 1 (Homo sapiens, UniProt P18031)", "T6 sequence (P18031 whole entry)": "T4 sequence (whole entry)", "assay": "Inhibition of N-terminal His tagged recombinant human PTP1B expressed in Escherichia coli using pNPP as substrate assessed as substrate hydrolysis"}, "Pepsin": {"tested_on": "Pepsin", "assay": "Stability of compound assessed as Pepsin (unknown origin) mediated compound degradation by measuring half-life by HPLC analysis", "assay_type": "ADME", "conditions": "human"}},
  "note": "Activity calls are given as the source filed them. No cut-off for these calls is given here. Square brackets hold non-standard residues; d marks the D form. Peptide text beside a SMILES is read from it. * marks the point of attachment. ξ: configuration not given here. C22 diacid = O=C(O)CCCCCCCCCCCCCCCCCCCCC(=O)*; ξR = N=C(N)NCCCC(N)C(=O)O",
  "data": [
    {"smiles": "CC[C@H](C)[C@H](NC(=O)CCCCCCCCCCCCCCCCCCCCC(=O)O)C(=O)N[C@@H](C)C(=O)N[C@@H](CCC(N)=O)C(=O)N[C@@H](CCC(=O)O)C(=O)N[C@@H](CC(C)C)C(=O)N[C@@H](CCCNC(=N)N)C(=O)NC(CCCNC(=N)N)C(=O)N[C@H](C(=O)NCC(=O)N[C@@H](CC(=O)O)C(=O)N[C@@H](CCC(=O)O)C(=O)N[C@@H](Cc1ccccc1)C(=O)O)[C@@H](C)CC", "note": "(stereo not given in full) ({C22 diacid}-IAQELR[ξR]IGDEF-OH)", "values": [
      {"measurement": "Activity", "setting": "Mus musculus [1]", "result": "Active"},
      {"measurement": "fold change (FC)", "setting": "[2]", "result": 10.2},
      {"measurement": "half-life", "setting": "carboxypeptidase A", "result": 1.28, "unit": "h"},
      {"measurement": "Fasting blood glucose level", "setting": "Mus musculus [3]", "result": 19.7, "unit": "mmol/L"},
      {"measurement": "Activity", "setting": "Mus musculus [4]", "result": "Active"},
      {"measurement": "Fasting blood glucose", "setting": "Mus musculus [5]", "result": 11, "unit": "mmol/L"},
      {"measurement": "IC50", "setting": "[6]", "result": "> 50000", "unit": "nM"},
      {"measurement": "Fasting blood glucose level", "setting": "Mus musculus [7]", "result": 11.5, "unit": "mmol/L"},
      {"measurement": "fold change (FC)", "setting": "Carboxypeptidase A1", "result": 40},
      {"measurement": "inhibition", "setting": "[8]", "result": "> 50", "unit": "%"},
      {"measurement": "Ratio IC50", "setting": "Homo sapiens", "result": "> 250"},
      {"measurement": "Fasting blood glucose level", "setting": "Mus musculus [9]", "result": 16, "unit": "mmol/L"},
      {"measurement": "fold change (FC)", "setting": "[10]", "result": 64.1},
      {"measurement": "Fasting blood glucose level", "setting": "Mus musculus [11]", "result": 17, "unit": "mmol/L"},
      {"measurement": "Fasting blood glucose level", "setting": "Mus musculus [12]", "result": 11.4, "unit": "mmol/L"},
      {"measurement": "inhibition", "setting": "[13]", "result": "< 50", "unit": "%"},
      {"measurement": "Activity", "setting": "Mus musculus [14]", "result": "Active"},
      {"measurement": "fold change (FC)", "setting": "Chymotrypsin [15]", "result": 158.4},
      {"measurement": "half-life", "setting": "Proteinase K", "result": 0.51, "unit": "h"},
      {"measurement": "Fasting blood glucose level", "setting": "Mus musculus [16]", "result": 19.7, "unit": "mmol/L"},
      {"measurement": "Activity", "setting": "Mus musculus [17]", "result": "Active"},
      {"measurement": "Activity", "setting": "Mus musculus [18]", "result": "Active"},
      {"measurement": "half-life", "setting": "chymotrypsin [19]", "result": 6.81, "unit": "h"},
      {"measurement": "IC50", "setting": "[20]", "result": 200, "unit": "nM"},
      {"measurement": "half-life", "setting": "Pepsin", "result": 1.41, "unit": "h"}
    ]}
  ]
}
